Laboratory results as given in article PMC6438731, “Extrasynaptic δ‐GABAA receptors are high‐affinity muscimol receptors” (Journal of Neurochemistry, 2019).
Where “and” joins values, the source holds several entries; their conditions need not be identical. Equal entries are not always repeated.

What was measured:
[1] = molecular target: T1, α1β2γ2 recombinant GABAA receptor (Rattus norvegicus, UniProt P62813+P63138); experiment: [^3H]muscimol binding kinetics, recombinant α1β2γ2 in HEK293 membranes
T1 construct: expressed in transfected cells; host or cells: HEK293 (ATCC CRL-1573), pRK5 plasmids, membranes
From the text: (§1) Human embryonic kidney (HEK) 293 cells (ATCC Cat# CRL‐1573; RRID: CVCL_0045; a commonly misidentified cell line by ICLAC; last authenticated by STR DNA profiling in December 2018) were transfected with rat cDNAs (α1, L08490; α6, L08495; β2, X15467; β3, X15468; γ2S, L08497; δ, L08496) in pRK5 plasmids under the control of the cytomegalovirus promoter (Uusi‐Oukari et al. 2000), using the calcium phosphate precipitation method essentially as described (Lüddens and Korpi 1997). The plasmids were used in 1 : 1 and 1 : 1 : 1 ratios for transfections containing 2 [(α1 or α6) + (β2 or β3)] or 3 [(α1 or α6) + (β2 or β3) + (γ2S or δ)] different subunits, respectively (5 μg of each plasmid DNA for a 10 cm plate). Mock transfection was done using 5 μg pRK5 plasmid backbone. The cells were harvested 48 h after transfection. Culture medium was removed and the cells were detached from the plates by pipetting in ice‐cold assay buffer containing 2 mM EDTA. The cells were homogenized (Ultra Turrax, 20 s at 9500 rpm), the homogenates centrifuged at 20 000 g for 10 min at +4°C, and washed once with the same buffer. The homogenates were finally suspended in assay buffer (1 mL/plate) and either used directly to binding assays or stored frozen at −70°C.
(§2) The binding of [^3H]muscimol (5 nM) was measured in assay buffer at 22°C in a total volume of 300 μL. Triplicate technical replicates of mouse forebrain (190–215 μg protein), cerebellar (180–210 μg protein) or HEK cell (92–132 μg protein) membranes for each time point were incubated with shaking for various times (15 s–15 min) to measure association of the binding. […] The incubation was terminated by filtration of the samples with a Brandel Cell Harvester (model M‐24, Gaithersburg, MD, USA) onto Whatman GF/B filters (Whatman International Ltd., Maidstone, UK). The samples were rinsed twice with 4–5 mL of ice‐cold assay buffer. Filtration and rinsing steps took a total time of ~15 s. Air‐dried filters were immersed in 3 mL of Optiphase HiSafe 3 scintillation fluid (Wallac, Turku, Finland) and radioactivity determined in a Wallac model 1410 liquid scintillation counter (Wallac, Turku, Finland).
(§3) The tubes were mixed and incubations at 22°C were terminated at various time points (30 s – 30 min) as described above. Dissociation of [^3H]muscimol from recombinant receptors in HEK cell membranes was also measured at 0–4°C (on ice) to evaluate how fast [^3H]muscimol dissociates from receptors while washing the filter with ice‐cold assay buffer during filtration.

[2] = molecular target: forebrain membranes of WT mice; experiment: Saturation analysis of [^3H]muscimol binding, WT forebrain membranes; set-up: species or system mouse; conditions: 0°C
Description: (§4) WT and δKO forebrain and cerebellar membranes were prepared using a modification of the method of Squires and Saederup (2000) essentially as described by Uusi‐Oukari et al. (2014). […] forebrain along with midbrain region was homogenized into 10 mM Tris‐HCl, pH 8.0 buffer containing 2 mM EDTA, using an Ultra‐Turrax T25 (Janke & Kunkel IKA labortechnik) for 20 s at 9500 rpm. The homogenates were centrifuged at 20 000 g for 10 min at +4°C and the resulting pellets were washed three times by resuspension and re‐centrifugation with 10 mM Tris‐HCl, pH 8.5 buffer containing 0.2 M NaCl, and 5 mM EDTA. The resulting pellets were then suspended in ice‐cold H2O and centrifuged. The pellets were again washed three times with Tris, pH 8.5/NaCl/EDTA as described above. The resulting pellets were finally suspended in assay buffer consisting of 50 mM Tris‐base, pH adjusted to 7.4 with citric acid, and frozen at −70°C. Before a binding experiment, the suspension was thawed, centrifuged, and suspended in assay buffer.
Saturation analysis of [^3H]muscimol to WT and δKO mouse forebrain and cerebellar membranes was performed essentially as described by Uusi‐Oukari and Korpi (1989). […] The incubations were terminated as described above.

[3] = molecular target: T2, α6β2δ recombinant GABAA receptor (Rattus norvegicus, UniProt P30191+P63138); experiment: [^3H]muscimol binding kinetics, recombinant α6β2δ in HEK293 membranes
T2 construct: expressed in transfected cells; host or cells: HEK293 (ATCC CRL-1573), pRK5 plasmids, membranes
From the text: as §1
as §2, with “Finland). The maximal binding disintegrations per minute (DPM) values (at 15 min in association) for recombinant studies with 5 nM [^3H]muscimol were between 700 and 2500 DPMs of specific binding (background subtracted). In native membranes, the maximal DPM values were between 2500 and 3000 for WTs and 1300–1500 for δKOs.” for “Finland).”
as §3

[4] = molecular target: native δ‐GABAARs in the cerebellum (WT‐δKO, α6βδ) (Mus musculus, UniProt P16305+P63137); experiment: [^3H]muscimol binding kinetics, cerebellum WT‐δKO (subtracted); conditions: 22°C
Description: as §4
(§5) The binding of [^3H]muscimol (5 nM) was measured in assay buffer at 22°C in a total volume of 300 μL. Triplicate technical replicates of mouse forebrain (190–215 μg protein), cerebellar (180–210 μg protein) or HEK cell (92–132 μg protein) membranes for each time point were incubated with shaking for various times (15 s–15 min) to measure association of the binding. […] Air‐dried filters were immersed in 3 mL of Optiphase HiSafe 3 scintillation fluid (Wallac, Turku, Finland) and radioactivity determined in a Wallac model 1410 liquid scintillation counter (Wallac, Turku, Finland). […]
as §3, with “filtration. […]” for “filtration.”

[5] = molecular target: cerebellar membranes of WT mice; experiment: [^3H]muscimol binding kinetics, WT cerebellar membranes; set-up: species or system mouse
Description: as §4, §5, §3

[6] = molecular target: T3, α6β2 recombinant GABAA receptor (Rattus norvegicus, UniProt P30191+P63138); experiment: [^3H]muscimol binding kinetics, recombinant α6β2 in HEK293 membranes; conditions: room temperature (22°C)
T3 construct: expressed in transfected cells; host or cells: HEK293 (ATCC CRL-1573), pRK5 plasmids, membranes
From the text: Human embryonic kidney (HEK) 293 cells (ATCC Cat# CRL‐1573; RRID: CVCL_0045; a commonly misidentified cell line by ICLAC; last authenticated by STR DNA profiling in December 2018) were transfected with rat cDNAs (α1, L08490; α6, L08495; β2, X15467; β3, X15468; γ2S, L08497; δ, L08496) in pRK5 plasmids under the control of the cytomegalovirus promoter (Uusi‐Oukari et al. 2000), using the calcium phosphate precipitation method essentially as described (Lüddens and Korpi 1997). The plasmids were used in 1 : 1 and 1 : 1 : 1 ratios for transfections containing 2 [(α1 or α6) + (β2 or β3)] or 3 [(α1 or α6) + (β2 or β3) + (γ2S or δ)] different subunits, respectively (5 μg of each plasmid DNA for a 10 cm plate). […]
The binding of [^3H]muscimol (5 nM) was measured in assay buffer at 22°C in a total volume of 300 μL. […] Air‐dried filters were immersed in 3 mL of Optiphase HiSafe 3 scintillation fluid (Wallac, Turku, Finland) and radioactivity determined in a Wallac model 1410 liquid scintillation counter (Wallac, Turku, Finland). […]
as §3

[7] = cerebellum WT‐δKO (native δ‐GABAARs, by subtraction)

native δ‐GABAARs in the cerebellum (WT‐δKO, α6βδ), sequence (P16305 20-453): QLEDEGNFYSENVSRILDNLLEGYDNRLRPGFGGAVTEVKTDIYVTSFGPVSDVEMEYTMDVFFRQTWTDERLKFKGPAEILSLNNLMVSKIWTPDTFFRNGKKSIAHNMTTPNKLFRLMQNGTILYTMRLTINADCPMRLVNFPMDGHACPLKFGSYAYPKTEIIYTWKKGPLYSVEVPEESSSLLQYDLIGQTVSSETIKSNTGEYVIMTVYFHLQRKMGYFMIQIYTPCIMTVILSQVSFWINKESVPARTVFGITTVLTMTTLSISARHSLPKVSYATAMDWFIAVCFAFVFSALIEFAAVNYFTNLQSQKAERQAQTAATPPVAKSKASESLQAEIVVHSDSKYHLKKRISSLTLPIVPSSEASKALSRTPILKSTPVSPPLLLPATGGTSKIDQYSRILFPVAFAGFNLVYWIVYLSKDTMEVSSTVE
native δ‐GABAARs in the cerebellum (WT‐δKO, α6βδ), sequence (P63137 26-512): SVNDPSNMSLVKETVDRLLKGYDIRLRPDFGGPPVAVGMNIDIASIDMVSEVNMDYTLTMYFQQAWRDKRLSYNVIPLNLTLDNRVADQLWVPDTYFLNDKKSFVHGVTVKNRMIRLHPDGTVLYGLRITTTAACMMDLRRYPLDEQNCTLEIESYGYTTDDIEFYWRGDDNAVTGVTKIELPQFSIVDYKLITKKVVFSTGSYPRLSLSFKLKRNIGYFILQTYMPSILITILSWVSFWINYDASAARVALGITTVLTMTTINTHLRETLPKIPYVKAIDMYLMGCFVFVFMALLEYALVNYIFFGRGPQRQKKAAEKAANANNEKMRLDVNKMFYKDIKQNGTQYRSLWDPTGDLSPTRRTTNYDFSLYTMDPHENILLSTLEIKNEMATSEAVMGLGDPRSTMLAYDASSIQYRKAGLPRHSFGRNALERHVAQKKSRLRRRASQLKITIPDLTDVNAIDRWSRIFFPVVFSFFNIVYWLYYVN
native δ‐GABAARs in the cerebellum (WT‐δKO, α6βδ), sequence (P22933 25-449 partner): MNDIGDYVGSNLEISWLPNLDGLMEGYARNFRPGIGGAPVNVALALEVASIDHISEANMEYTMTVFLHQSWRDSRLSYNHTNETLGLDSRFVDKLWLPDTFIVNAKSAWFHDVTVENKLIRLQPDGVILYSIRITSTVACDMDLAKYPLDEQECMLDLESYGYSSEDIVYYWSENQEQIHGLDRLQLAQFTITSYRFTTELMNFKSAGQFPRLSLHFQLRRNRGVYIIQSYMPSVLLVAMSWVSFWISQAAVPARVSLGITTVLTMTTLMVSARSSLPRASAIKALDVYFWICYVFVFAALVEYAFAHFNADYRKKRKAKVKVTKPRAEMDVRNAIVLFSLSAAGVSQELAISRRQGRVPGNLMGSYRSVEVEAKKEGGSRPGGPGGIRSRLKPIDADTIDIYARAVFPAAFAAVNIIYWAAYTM
T1 sequence (P62813 28-455): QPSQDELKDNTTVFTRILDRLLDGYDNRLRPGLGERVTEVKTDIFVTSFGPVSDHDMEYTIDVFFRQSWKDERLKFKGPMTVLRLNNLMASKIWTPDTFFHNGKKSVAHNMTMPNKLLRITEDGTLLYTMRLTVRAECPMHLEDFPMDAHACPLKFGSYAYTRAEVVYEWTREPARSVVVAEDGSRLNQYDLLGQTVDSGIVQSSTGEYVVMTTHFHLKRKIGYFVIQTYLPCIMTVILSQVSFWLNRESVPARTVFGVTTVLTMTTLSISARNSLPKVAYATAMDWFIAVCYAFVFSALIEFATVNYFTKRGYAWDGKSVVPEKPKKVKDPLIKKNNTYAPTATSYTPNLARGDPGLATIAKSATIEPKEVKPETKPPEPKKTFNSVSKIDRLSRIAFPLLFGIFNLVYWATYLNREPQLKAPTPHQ
T1 sequence (P63138 26-474): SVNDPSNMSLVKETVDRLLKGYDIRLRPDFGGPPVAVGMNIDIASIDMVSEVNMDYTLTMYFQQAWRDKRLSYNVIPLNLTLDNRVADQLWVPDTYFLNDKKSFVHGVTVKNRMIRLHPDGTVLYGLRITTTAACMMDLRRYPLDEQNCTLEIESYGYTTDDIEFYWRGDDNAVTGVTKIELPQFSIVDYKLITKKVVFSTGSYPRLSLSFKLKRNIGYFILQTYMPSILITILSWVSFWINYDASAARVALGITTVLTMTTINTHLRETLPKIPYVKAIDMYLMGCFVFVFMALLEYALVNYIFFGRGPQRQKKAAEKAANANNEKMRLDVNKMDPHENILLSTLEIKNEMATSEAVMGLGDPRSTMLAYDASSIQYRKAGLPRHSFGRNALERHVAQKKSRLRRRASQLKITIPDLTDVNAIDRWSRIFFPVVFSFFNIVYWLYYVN
T1 sequence (P18508 39-466 partner): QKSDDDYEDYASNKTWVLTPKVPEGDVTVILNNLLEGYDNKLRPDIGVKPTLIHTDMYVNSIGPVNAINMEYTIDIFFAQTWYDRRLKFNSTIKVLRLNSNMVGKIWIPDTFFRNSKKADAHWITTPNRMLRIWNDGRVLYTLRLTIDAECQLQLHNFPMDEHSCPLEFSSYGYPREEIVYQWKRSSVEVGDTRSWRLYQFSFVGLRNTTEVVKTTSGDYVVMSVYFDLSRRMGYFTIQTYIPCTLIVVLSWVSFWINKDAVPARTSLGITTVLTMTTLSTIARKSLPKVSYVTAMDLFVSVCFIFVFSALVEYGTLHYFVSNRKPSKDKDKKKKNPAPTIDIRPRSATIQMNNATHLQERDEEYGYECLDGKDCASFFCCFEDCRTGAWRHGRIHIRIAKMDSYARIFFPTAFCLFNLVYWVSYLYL
T2 sequence (P30191 20-453): as the sequence (P16305 20-453) above, with Q121H, T163S, T325K, A333T, S334T, Q338E, A371V, K379P, S384T, T392I counted along it
T2 sequence (P63138 26-474): as the sequence (P63138 26-474) above
T2 sequence (P18506 25-449 partner): as the sequence (P22933 25-449 partner) above, with A38P, L149M counted along it
T3 sequence (P30191 20-453): as the sequence (P16305 20-453) above, with Q121H, T163S, T325K, A333T, S334T, Q338E, A371V, K379P, S384T, T392I counted along it
T3 sequence (P63138 26-474): as the sequence (P63138 26-474) above

NCc1cc(=O)[nH]o1 [[^3H]muscimol] [[Methylene‐^3H]muscimol]
dissociation of [^3H]muscimol binding during the first 15 s after pre‐incubation ([1]; α1β2γ2, 0°C, approximated): about 10%
Kd ([1]; α1β2γ2 in HEK293 membranes, 22°C, K D = koff/kon): 1.6 nM
k off ([1]; α1β2γ2 in HEK293 membranes, +4 °C): 0.352 ± 0.009 min⁻¹
k off ([1]; α1β2γ2 in HEK293 membranes, room temperature (22°C)): 1.78 ± 0.18 min⁻¹
k on ([1]; α1β2γ2 in HEK293 membranes, room temperature (22°C), 5 nM [^3H]muscimol): 11 ± 0.6 × 10^8 M^−1 × min^−1
Apparent pKD [2]: 8.02 ± 0.06
Kd ([3]; α6β2δ in HEK293 membranes, 22°C, K D = koff/kon): 1.3 nM
k off ([3]; α6β2δ in HEK293 membranes, +4 °C): 0.015 ± 0.003 ^*** min^−1
k off ([3]; α6β2δ in HEK293 membranes, room temperature (22°C)): 0.13 ± 0.03 ^### min^−1
k on ([3]; α6β2δ in HEK293 membranes, room temperature (22°C), 5 nM [^3H]muscimol): 1.0 ± 0.1 × 10^8, ^### M^−1 × min^−1
association rate constant kon lower when compared to γ2‐GABAARs ([3]; α6β2δ vs α1β2γ2 and α6β2γ2, 22°C): 6.3–11 fold
[^3H]muscimol still remaining bound ([3]; α6β2δ, 0°C, 30 min after start of the dissociation): 70%
k off [4, 7]: 0.12 ± 0.03 min⁻¹
k on [4, 7]: 1.2 ± 0.2 × 10^8 M^−1 × min^−1
Kd ([4]; cerebellum WT‐δKO (native δ‐GABAARs, α6βδ), K D = koff/kon): ~1 nM and 1 nM
Kd ([5]; 22°C, K D = koff/kon): 1.7 nM
k off ([5]; room temperature (22°C)): 0.47 ± 0.14 min⁻¹
k on ([5]; room temperature (22°C), 5 nM [^3H]muscimol): 2.8 ± 0.2 × 10^8 M^−1 × min^−1
k off [6]: 1.46 ± 0.05 ^††† min^−1
